Measured values taken from patent US8722052B2, “Vaccinia virus protein A46 peptide and use thereof” (priority 2008, dated 2014).
Entries after “also recorded” stand apart in the source; their conditions may differ. Read-outs that look alike come from different tables or passages of the source.

Tests used:
Format in all cases: cell-based, human
TLR4 [1] = assay: LPS-induced TNFα in PMA-differentiated U937 cells, ELISA; settings: peptide 5 or 20 μM 1 h before 100 ng/ml LPS, 24 h
Procedure: FIGS. 3A and B are bar charts showing the effect of peptides derived from A46 on LPS-induced TNFα in human U937 cells. Cells were differentiated with 200 nM PMA and seeded in 96 well plates (2×10^5 cells/ml) 24 hours before treatment. A46 peptides were added to the cells at a concentration of 5 or 20 μM 1 hour before stimulating with 100 ng/ml LPS. Supernatants were collected 24 hours after stimulation and assayed for TNFα by ELISA. No peptides were added into the control wells (black bars). (A) peptides A461-A467 (SEQ ID NO. 17 to 23). (B) peptides A468-A4614 (SEQ ID NO. 24 to 30) (excluding A4612 SEQ ID NO. 28). Data is representative of at least two experiments each performed in triplicate and is expressed as mean±s.d;
Cytokine and chemokine production from cells or mouse serum was measured by ELISA using Duoset kits from R&D systems, according to the manufacturer's instructions.
LPS is a component of a cell wall of Gram-negative bacteria which is recognised by a homodimer of TLR4 and signals to NFκB via both a MyD88- and TRIF-dependent pathway (O'Neill and Bowie, 2007). In order to examine the effect of the peptides on TLR4-dependent gene induction in human cells, the human monocytic lymphoma cell line U937 was used. U937 cells were differentiated into macrophages by treatment with 200 nM PMA for 24 hours before any further manipulations. […]

TLR4 [2] = settings: THP-1; for inhibition of LPS-induced TNFα production: 6 h
PBMCs = assay: MTT cell viability assay, PBMC; settings: peptide 1, 5 and 25 μM
Procedure: FIGS. 13A and B are bar charts showing the effect of A467 and A464 on LPS-induced TNFα production and on cell viability in primary human cells. Peripheral blood mononuclear cells (PBMCs) were seeded in 96 well plates (1 ×10^6 cells/ml) 24 hours before treatment. A467 (SEQ ID NO. 23) and A464 (SEQ ID NO. 20) were added to the cells at 1, 5 and 25 μM 1 hour before stimulating with 10 ng/ml LPS. The peptides were added into the unstimulated control wells at 25 μM. Supernatants were collected 6 hours after stimulation and assayed for TNFα production by ELISA (A). The cells were assayed for viability by the MTT assay (B). No peptides were added to the control wells (black bars). Data is representative of at least three experiments each performed in triplicate and is expressed as mean±s.d;
Cell viability was measured by assessing mitochondrial function using an MTT (3-(4,5-Dimethylthiazol-2-yl)-2,5-diphenyltetrazolium bromide) assay. Cells were seeded into 96 well plates and treated with peptides and agonists as described above in relation to the Figs. Wells containing medium only served as a blank control. To terminate treatment of cells, medium was removed and the cells were washed once with PBS. […] MTT was then removed and 200 μl per well of dimethyl sulphoxide (DMSO) was added and cells incubated for 20 min at 37° C. in the dark, prior to absorbance being read at 595 nm on a spectrophotometer.

Chain of TLR4 (O00206 24-839): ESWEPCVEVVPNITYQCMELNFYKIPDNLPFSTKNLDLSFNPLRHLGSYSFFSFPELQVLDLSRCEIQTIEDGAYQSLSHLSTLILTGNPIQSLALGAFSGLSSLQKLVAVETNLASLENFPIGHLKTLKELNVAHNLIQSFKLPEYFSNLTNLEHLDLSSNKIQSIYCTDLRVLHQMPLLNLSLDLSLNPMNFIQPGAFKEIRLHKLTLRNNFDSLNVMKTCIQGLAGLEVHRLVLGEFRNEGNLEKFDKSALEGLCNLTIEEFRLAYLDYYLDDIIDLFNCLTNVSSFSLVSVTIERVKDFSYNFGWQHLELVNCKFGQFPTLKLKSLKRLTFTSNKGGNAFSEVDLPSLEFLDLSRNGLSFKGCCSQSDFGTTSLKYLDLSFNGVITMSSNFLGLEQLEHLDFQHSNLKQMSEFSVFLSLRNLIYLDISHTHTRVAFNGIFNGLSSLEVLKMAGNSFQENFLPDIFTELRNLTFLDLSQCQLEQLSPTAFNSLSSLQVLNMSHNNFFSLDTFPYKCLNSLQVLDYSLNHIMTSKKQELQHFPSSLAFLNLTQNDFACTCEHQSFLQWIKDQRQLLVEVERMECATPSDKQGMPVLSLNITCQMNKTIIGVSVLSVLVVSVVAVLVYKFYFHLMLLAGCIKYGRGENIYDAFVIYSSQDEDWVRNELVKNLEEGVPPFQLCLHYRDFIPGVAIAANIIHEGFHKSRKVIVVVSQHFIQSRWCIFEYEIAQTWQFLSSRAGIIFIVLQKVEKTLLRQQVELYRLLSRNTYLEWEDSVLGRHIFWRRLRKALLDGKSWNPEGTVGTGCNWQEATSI
Chain of TLR4 (Q9Y6Y9 17-160 partner limits assumed): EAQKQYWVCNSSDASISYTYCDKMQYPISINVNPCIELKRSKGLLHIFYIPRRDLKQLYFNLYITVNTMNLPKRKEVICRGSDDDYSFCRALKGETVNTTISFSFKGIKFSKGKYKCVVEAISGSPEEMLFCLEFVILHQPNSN

## KYSFKLILAEYRRRRRRRRR [Peptide A464]
TLR4 [1]
  inhibition of LPS (TLR4)-induced TNFα production: potently inhibit TLR4-mediated TNFα production; also recorded: very potent inhibitory effect
TLR4 [2]; 5 and 10 μM peptide added 1 hour after LPS stimulation
  inhibition of LPS-induced hTNFα production, peptide added after LPS: almost completely inhibited
TLR4 [2]; peptide 5 or 10 μM 1 h before 10 ng/ml LPS
  inhibition of LPS-induced TNFα production: complete inhibition of TLR4 was achieved at 5 and 10 μM
TLR4 [2]; peptide 20 or 40 μM 1 h before 100 ng/ml LPS
  inhibition of LPS-induced TNFα production: 20 μM A464 (SEQ ID No. 20) inhibited TLR4-mediated TNFα production
PBMCs
  toxicity (MTT): not toxic
